Assay results published in US7335756B2, “Retinoic acid metabolizing cytochrome P450” (Cytochroma Inc., priority 2001, dated 2008).

What was measured:
P450RAI-3 [1] = biological target: T1, P450RAI-3 (Homo sapiens, UniProt Q6V0L0, F447L); assay: ATRA and 9-cis-RA binding assay, Sf9-Bac-P450RAI-3 insect microsomes; settings: Kd, substrate binding to P450RAI-3, insect microsomes; Table 4 prints no unit, nM
T1 sequence (Q6V0L0 1-522 F447L): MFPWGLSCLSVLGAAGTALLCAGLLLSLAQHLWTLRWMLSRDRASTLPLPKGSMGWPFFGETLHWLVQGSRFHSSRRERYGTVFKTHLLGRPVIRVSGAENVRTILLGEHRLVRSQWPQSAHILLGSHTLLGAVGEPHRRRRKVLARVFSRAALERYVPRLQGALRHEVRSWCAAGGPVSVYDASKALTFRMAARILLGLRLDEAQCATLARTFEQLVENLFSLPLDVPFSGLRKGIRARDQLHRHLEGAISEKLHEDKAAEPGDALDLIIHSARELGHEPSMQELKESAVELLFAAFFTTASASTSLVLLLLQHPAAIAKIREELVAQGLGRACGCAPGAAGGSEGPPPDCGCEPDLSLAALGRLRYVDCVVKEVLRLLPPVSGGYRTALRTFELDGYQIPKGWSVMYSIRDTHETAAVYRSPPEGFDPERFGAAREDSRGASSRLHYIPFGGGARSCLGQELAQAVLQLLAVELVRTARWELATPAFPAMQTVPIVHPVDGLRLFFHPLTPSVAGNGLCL

P450RAI-3 [2] = biological target: T1, P450RAI-3; assay: [3H]-RA-metabolism inhibition in mammalian microsomes from transient P450RAI-3-transfected Cos cells; assay type: biochemical; design: expressed in transfected cells; host or cells: COS-1 (transient, pcDNA-P450RAI-3, Fugene); settings: read-out: ID50 (nM) P450RAI-3
Procedure: RA-metabolism activity was assessed using RA-metabolism microsomes-based assay and Bligh Dyer extraction as follows: Using an automatic repeating-pipette, gently thawed and homogenized microsomes were plated in a 48-well plate in final volume of 150 μl of storage buffer containing 0.5 mg/ml BSA. At indicated concentration 2 μl of compound solution was added to the assay and 2 μl of DMSO was added to MS control (quadruplet) and No-MS control. 50 μl of [^3H]-RA solution (30,000 cpm, 2 nM final concentration) was added. The microsomes assay with the compounds and the [^3H]-ATRA were incubated first for 10 min at 37° C., and then the reaction started by adding 20 μl of NADPH solution (or 1 mM final). After 1-hour incubation the reaction was stopped by adding 5 μl of 10% acetic acid. Organic and aqueous soluble radio-labelled metabolites were extracted using the Bligh-Dyer procedure. Saturated activity obtained in presence of NADPH at 5 μg of microsomes, FIG. 14.
Microsomes prepared from either stable Hela-CYP26-B or transient P450RAI-3-transfected Cos cells were used.

CYP26-B [3] = biological target: T2, CYP26-B (Homo sapiens, UniProt Q9NR63); assay: [3H]-RA-metabolism inhibition, transient Cos-CYP26-B cell-based assay; settings: at lower concentrations
T2 sequence (Q9NR63 1-512): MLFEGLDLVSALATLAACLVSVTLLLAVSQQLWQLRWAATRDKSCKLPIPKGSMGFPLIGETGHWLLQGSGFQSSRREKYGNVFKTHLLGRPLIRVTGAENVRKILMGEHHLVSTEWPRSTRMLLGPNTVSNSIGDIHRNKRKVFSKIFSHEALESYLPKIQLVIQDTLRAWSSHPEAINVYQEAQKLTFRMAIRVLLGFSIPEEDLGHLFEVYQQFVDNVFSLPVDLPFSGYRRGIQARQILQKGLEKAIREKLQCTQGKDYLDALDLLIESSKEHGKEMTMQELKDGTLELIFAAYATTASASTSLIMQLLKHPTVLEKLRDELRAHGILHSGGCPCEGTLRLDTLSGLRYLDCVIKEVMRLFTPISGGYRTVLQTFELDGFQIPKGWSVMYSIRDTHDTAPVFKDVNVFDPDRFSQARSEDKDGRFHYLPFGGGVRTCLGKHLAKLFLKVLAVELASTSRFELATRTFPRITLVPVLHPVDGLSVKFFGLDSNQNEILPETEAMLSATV

P450RAI-3 [4] = biological target: T1, P450RAI-3; assay: [3H]-RA-metabolism inhibition, transient Cos-P450RAI-3 cell-based assay; design: expressed in transfected cells; host or cells: COS-1 (transient, pcDNA-P450RAI-3, Fugene); settings: at lower concentrations
Procedure: The purpose of these experiments is to determine the specific substrates for P450RAI-3. […] The RA metabolism reaction was started by the addition of 50 ul of [^3H]-RA solution (20000 cpm, 2 nM final concentration). Cells were incubated for 3 hours in a humidified CO2 incubator at 37 degrees Celsius. The reaction was stopped by the addition of 5 ul of 10% acetic acid. Organic and aqueous soluble radio-labelled metabolites were extracted using the Bligh-Dyer procedure.

CYP26-B [5] = biological target: T2, CYP26-B; assay: RA-metabolism cell based assay in CYP26-B-infected Sf9 cells; settings: 2 nM [3H]-RA
Procedure: (§1) Recombinant baculovirus expressing either P450RAI-3 or CYP26B (Bac-P450RAI-3 or Bac-CYP26B or CYP26B) was prepared and titrated by end-point dilution and infection of Sf9 cells in 96-well format. Baculovirus expressing vector was co-transfected into Sf9-insect cells. Infected cells were assessed for RA-metabolism after 72 hours post transfection using RA-metabolism cell based assay as follows: the RA-metabolism reaction was started by adding 50 μl of [^3H]-RA solution (20000 cpm, 2 nM final concentration) using an automatic repeating-pipette.
(§2) Cells were incubated for 3 hours. The reaction was stopped by adding 5 μl of 10% acetic acid. Organic and aqueous soluble radio-labelled metabolites were extracted using the Bligh-Dyer procedure.

P450RAI-3 [6] = biological target: T1, P450RAI-3; assay: RA-metabolism cell based assay in P450RAI-3-infected Sf9 cells; design: expressed in transfected cells; settings: 2 nM [3H]-RA
Procedure: as §1, §2

CC1=C(/C=C/C(C)=C/C=C/C(C)=C/C(=O)O)C(C)(C)CCC1 [ATRA, all-trans-retinoic-acid]
Kd (P450RAI-3 [1]): 45 nM | IC50 (P450RAI-3 [2]): 20 nM | competition / inhibition of CYP26-B (CYP26-B [3]): competed | competition / inhibition of P450RAI-3 (P450RAI-3 [4]): competed | metabolism by CYP26-B-infected Sf9-cells (CYP26-B [5]): metabolized ATRA and converted it to water-soluble metabolites | metabolism by P450RAI-3-infected Sf9-cells (P450RAI-3 [6]): metabolized ATRA and converted it to water-soluble metabolites
